# Test results reported in patent US12655127B2, “Fused ring compound as Wee-1 inhibitor” (WIGEN BIOMEDICINE TECHNOLOGY (SHANGHAI) CO., LTD., priority 2021, dated 2026).
# Legend:
# [1] = target: recombinant protein Wee-1 (Homo sapiens, UniProt P30291); assay: Inhibition of enzymatic activity of recombinant protein Wee-1 (HTRF); format: biochemical
# In short: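 Serially diluted compounds (up to 200 nM, 1:5) preincubated with recombinant Wee-1 in kinase buffer 30 min at 37° C, then Fluorescein-PolyGAT, ATP and substrate added; 90 min at room temperature. HTRF detection after 60 min (ex 340 nm, em 495/520 nm); 520/495 ratio versus DMSO gave % inhibition and IC50.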
# [2] = system: HT29 subcutaneous xenograft tumor; assay: Mouse HT29 subcutaneous xenograft tumor model; format: in vivo; details: for TGI: day 18, nude mouse HT29 xenograft; for Tumor volume on day 1 of treatment (mm^3) / Tumor volume on day 18 of treatment (mm^3): nude mouse HT29 xenograft
# Method: HT29 is a colon cancer cell. Each nude mouse was grafted subcutaneously with 5×10^6 HT29 cells. When the tumor grew to 100-200 mm^3, the compound was administered orally once a day alone or in combination with 15 mg/kg of gemcitabine injected intraperitoneally once a week, and the tumor volume was measured twice a week and at the end of treatment. Tumor growth inhibition of the compound was calculated according to the following equation: tumor growth inhibition (TGI)=1−(tumor volume on day 18 in treatment group−tumor volume on day 1 in treatment group)/(tumor volume on day 18 in vehicle control group−tumor volume on day 1 in treatment group).
# MIA PaCa-2 cells [3] = assay: In-vitro anti-proliferative activity on MIA PaCa-2 cells; format: cell-based; details: Homo sapiens, 72 h after dosing, intracellular ATP content
# Method: (§1) MIA PaCa-2 cells were seeded on a 384-well plate at 3000 cells/well. After overnight adherence culture, DMSO or the compounds serially diluted 1:5 from 5 μM were added. The viability was assessed 72 h after dosing by measuring the intracellular ATP content. The inhibition percentage of viable cells by the compounds was calculated by comparing with the DMSO group, and the IC50 value was calculated.
# MIA PaCa-2 cells [4] = assay: In-vitro anti-proliferative activity in combination with gemcitabine on MIA PaCa-2 cells; format: cell-based; details: with 20 nM gemcitabine, 72 h after dosing, intracellular ATP content
# Method: as §1, with “cells/well, and 20 nM gemcitabine was added.” for “cells/well.”, “100 nM” for “5 μM”
# [5] = 30 mg/kg orally once a day in combination with 15 mg/kg of gemcitabine i.p. once a week
# [6] = monotherapy, 30 mg/kg orally once a day
# Chain of recombinant protein Wee-1 (P30291 whole entry): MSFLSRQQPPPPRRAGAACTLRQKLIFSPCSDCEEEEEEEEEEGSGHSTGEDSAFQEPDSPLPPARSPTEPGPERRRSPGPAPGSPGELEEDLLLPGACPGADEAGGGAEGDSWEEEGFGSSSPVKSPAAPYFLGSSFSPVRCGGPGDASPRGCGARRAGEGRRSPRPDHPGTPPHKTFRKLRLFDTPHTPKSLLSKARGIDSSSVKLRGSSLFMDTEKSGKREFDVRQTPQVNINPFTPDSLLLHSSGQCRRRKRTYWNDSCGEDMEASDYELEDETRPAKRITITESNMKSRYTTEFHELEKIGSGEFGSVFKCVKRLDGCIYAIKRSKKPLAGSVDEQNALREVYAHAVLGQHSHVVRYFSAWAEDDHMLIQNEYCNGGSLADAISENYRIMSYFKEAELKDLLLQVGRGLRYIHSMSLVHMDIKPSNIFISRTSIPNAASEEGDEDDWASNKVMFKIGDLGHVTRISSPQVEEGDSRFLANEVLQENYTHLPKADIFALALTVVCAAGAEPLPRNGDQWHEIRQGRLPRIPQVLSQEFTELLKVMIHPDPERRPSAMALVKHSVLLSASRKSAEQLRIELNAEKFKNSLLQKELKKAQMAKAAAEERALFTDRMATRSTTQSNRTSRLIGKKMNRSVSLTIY
structure (smiles),measurement,setting,value
"CN1Cc2cc(Nc3ncc(C#N)c(Nc4cccc(N=S(C)(C)=O)n4)n3)cc3c2[C@H](CCC3)C1 (single isomer, unassigned) [Compound 2]",IC50,[1],≤ 10 nM
same,TGI,[2]; [5],109%
same,Tumor volume on day 1 of treatment (mm^3),[2]; [5],112 mm^3
same,Tumor volume on day 18 of treatment (mm^3),[2]; [5],11 mm^3
same,TGI,[2]; [6],99%
same,Tumor volume on day 1 of treatment (mm^3),[2]; [6],112 mm^3
same,Tumor volume on day 18 of treatment (mm^3),[2]; [6],115 mm^3
same,IC50,MIA PaCa-2 cells [3],259 nM
same,IC50,MIA PaCa-2 cells [4],0.245 nM
